In patent US20030216426A1 (REGENTS OF THE UNIVERSITY OF CALIFORNIA, priority 2002, published 2003):
pIC50: −log10 of the molar value. Counter-ions that a name gives are not always drawn. One block for each molecule: values may come before it.

Columns and labels:
HCT-116 = assay: MTT cell viability assay, HCT-116; assay type: cell-based; conditions: Homo sapiens, Colon, 72 hours exposure
Protocol: (§1) After 72 hours exposure, the viability of the cells was determined by the rate of conversion of the formazan salt measuring the optical density (OD) at 570 nm (MTT assay).

10C9 = assay: MTT cell viability assay, 10C9; assay type: cell-based; conditions: Lymphoma, 72 hours exposure
Protocol: as §1

MDA-231 = assay: MTT cell viability assay, MDA-231; assay type: cell-based; conditions: Homo sapiens, MDA-MB-231, Breast, 72 hours exposure
Protocol: as §1

RAJI = assay: MTT cell viability assay, RAJI; assay type: cell-based; conditions: Homo sapiens, Lymphoma, 72 hours exposure
Protocol: as §1

SU-DHL9 = assay: MTT cell viability assay, SU-DHL9; assay type: cell-based; conditions: Lymphoma, 72 hours exposure
Protocol: as §1

U266 = assay: MTT cell viability assay, U266; assay type: cell-based; conditions: Homo sapiens, U-266, Myeloma, 72 hours exposure
Protocol: as §1

SU-DHL1 = assay: MTT cell viability assay, SU-DHL1; assay type: cell-based; conditions: Homo sapiens, SU-DHL-1, Lymphoma, 72 hours exposure
Protocol: as §1

RPMI8226 = assay: MTT cell viability assay, RPMI8226; assay type: cell-based; conditions: Homo sapiens, RPMI-8226, Myeloma, 72 hours exposure
Protocol: as §1

LNCap = assay: MTT cell viability assay, LNCap; assay type: cell-based; conditions: Homo sapiens, Prostate, 72 hours exposure
Protocol: as §1

MCF7 = assay: MTT cell viability assay, MCF7; assay type: cell-based; conditions: Homo sapiens, Breast, 72 hours exposure
Protocol: as §1

[1] = system: myeloma cell lines RPM18226; assay: Apoptosis induction in myeloma cell line; assay type: cell-based; conditions: RPM18226 myeloma cells
[2] = system: control normal lymphocytes (PBL); assay: Viability/apoptosis of control normal lymphocytes by dye exclusion and flow cytometric analysis; assay type: cell-based, human; conditions: 10 μM, 48 hours exposure, PBL of a healthy volunteer
Protocol: (§2) After 48 hours exposure, the number of viable cells was determined by dye exclusion and flow cytometric analysis.

[3] = system: Chronic lymphocytic leukemia cells (CLL); assay: Viability/apoptosis of CLL cells by dye exclusion and flow cytometric analysis; assay type: cell-based, human; conditions: 10 μM, 48 hours exposure, CLL cells of two patients
Protocol: as §2

[4] = system: peripheral blood T lymphocytes; conditions: cited from earlier work
CLL cells = conditions: not feasible in vivo due to toxicity; cited from earlier work
[5] = cited from earlier work
[6] = in vivo; cited from earlier work
[7] = cited from earlier work; remark: listed apart in the source

IC50 (HCT-116): 6 µM
IC50 (RAJI): 12 µM
IC50 (SU-DHL9): 7 µM
IC50 (U266): 11 µM
IC50 (SU-DHL1): 8 µM
IC50 (RPMI8226): 8 µM
IC50 (LNCap): 12 µM
IC50 (MCF7): 10 µM
pIC50 [1]: 4.70 to 5.00
Structure (SMILES): O[C@H](c1cc(C(F)(F)F)nc2c(C(F)(F)F)cccc12)[C@@H]1CCCCN1 (racemic) [(+/−) Mefloquine, (R*, S*)-(±)-alpha-2-piperidinyl-2,8-bis (trifluoromethyl)-4-quinolinemethanol]
IC50 (10C9): 9 µM
IC50 (MDA-231): 20 µM

Structure (SMILES): O[C@H](c1cc(C(F)(F)F)nc2c(C(F)(F)F)cccc12)[C@@H]1CCCCN1 (relative stereo) [(+/−) Mefloquine, (R*, S*)-(±)-alpha-2-piperidinyl-2,8-bis (trifluoromethyl)-4-quinolinemethanol]
induction of apoptosis in normal lymphocytes [2]: not against normal lymphocytes
induction of apoptosis in CLL cells [3]: potent apoptosis

Structure (SMILES): CCN(CCO)CCCC(C)Nc1ccnc2cc(Cl)ccc12 (stereo not shown) [Hydroxychloroquine, hydroxychloroquine]
induction of apoptosis in peripheral blood T lymphocytes [4]: induce apoptosis
concentration active against CLL cells (CLL cells): ≥ 30 µg/mL

Structure (SMILES): OC(c1cc(C(F)(F)F)nc2c(C(F)(F)F)cccc12)C1CCCCN1 (stereo not shown) [Mefloquine hydrochloride]
solubility in ethanol ([5]; ethanol): soluble in ethanol
solubility in water ([5]; water): slightly soluble in water

Structure (SMILES): O=C(O)c1cc(C(F)(F)F)nc2c(C(F)(F)F)cccc12 [Metabolite, 2,8-bis-trifluoromethyl-4-quinoline carboxylic acid]
passage of the blood brain barrier / accumulation in the brain [6]: will not penetrate the brain barrier
Mean (SD) trough concentration, Plasma ([7]; healthy volunteers, 250 mg once weekly for 16 weeks, steady state at week 16, plasma): 9.80 (5.07) μmol · 1^−1
Mean (SD) trough concentration, Serum ([7]; healthy volunteers, 250 mg once weekly for 16 weeks, steady state at week 16, serum): 9.44 (5.00) μmol · 1^−1
Mean (SD) trough concentration, Whole Blood ([7]; healthy volunteers, 250 mg once weekly for 16 weeks, steady state at week 16, whole blood): 4.89 (2.58) μmol · 1^−1
accumulation in the plasma ([7]; plasma, text statement referring to Table 1): up to 10 μM
